Data from paper PMC5882690, “Mechanical characteristics of beta sheet-forming peptide hydrogels are dependent on peptide sequence, concentration and buffer composition” (Royal Society Open Science, 2018).
Where a SMILES comes first, the peptide text is derived from it.

Columns and labels:
[1] = molecular target: T1, human neutrophil elastase (Homo sapiens, UniProt P08246); experiment: SAP hydrogel degradation by human neutrophil elastase; format: in vitro ADME; settings: human neutrophil elastase 100 µg ml^-1 (86 units ml^-1) in PBS, 37°C, 5% CO2, 20 mg ml^-1 P11-4, 15 mg ml^-1 others, Qubit Protein Assay, mean ± SD, n = 3
T1 construct: purchased Innovative Research, USA
T1 sequence (P08246 30-267): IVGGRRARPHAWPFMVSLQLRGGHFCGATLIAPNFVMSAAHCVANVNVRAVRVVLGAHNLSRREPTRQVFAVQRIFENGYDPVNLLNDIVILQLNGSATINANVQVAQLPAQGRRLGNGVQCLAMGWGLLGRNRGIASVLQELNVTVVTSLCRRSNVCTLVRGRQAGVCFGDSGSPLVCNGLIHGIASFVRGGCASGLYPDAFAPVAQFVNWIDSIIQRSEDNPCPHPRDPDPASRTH
Protocol: SAP hydrogel dissolution and degradation properties of the peptides in the presence and absence of neutrophilic elastase and microorganisms were measured by determining the peptide content of the supernatant. Therefore, SAPs were assembled in PBS at concentrations of 20 mg ml^−1 for P11-4 and 15 mg ml^−1 for P11-8, P11-13/14 and P11-28/29. The assay was performed in a 96-well plate with gel volumes of 100 µl well^−1. 86 units ml^−1 elastase (Innovative Research, USA) (100 µg ml^−1) were added to the assembled peptides in PBS solution. After 24 h incubation at 37°C and 5% CO2, 10 µl of the supernatant was sterilely removed after 24 and 168 h and measured indirectly by monomeric peptide concentration in the supernatant using the Qubit® Protein Assay (Q33211; Thermo Fisher; fluorescence at 485/590 nm) and transferred back for the remainder of the experiment allowing peptide hydrogel degradation measurement without disturbing the hydrogel to buffer fluid balance. The measurements are based on the fact that degraded peptides cause disassembly of the fibrils, as assembly rules are no longer given, resulting in an increase in monomeric SAP in solution. SAP concentrations were calculated based on respective peptide standard curves. For data analysis, SAP concentrations measured in the supernatant were calculated as a percentage of the specific starting concentrations of each peptide system. Statistical analysis was done using a two-way ANOVA followed by Sidak's multiple comparison test.

[2] = Oscillatory time sweep (hydrogel stiffness at t = 100 min, gelation speed); format: physicochemical; settings: for Stiffness (storage modulus G′ at t = 100 min) / Speed (gelation speed, dG′/dt 5–10 min): time sweep, mean ± SD
Protocol: Dynamic oscillatory amplitude sweeps up to 150% strain were performed at 37°C using an Anton Paar MCR301 rheometer equipped with a 10 mm diameter stainless steel parallel plate geometry at a 0.9 mm measuring gap. The amplitude sweep tests were performed to measure storage moduli (G′) within the linear viscoelastic region. Calculations of the gel breaking points (yield points) were performed with MATLAB depending on the different peptide concentrations. Therefore, the yield strain was defined as the point where G′ is less than 95% of its original value. Oscillatory time sweep experiments were performed to study the gelation speed and hydrogel stiffness. Time sweeps up to 150 min measuring time using a frequency of 1 rad s^−1 and amplitude gamma of 0.05% were used. SAP hydrogel stiffness was determined after the equilibrium of the storage modulus (G′) was reached (t = 100 min). To determine the gelation speed, the slope of increasing storage modulus over time was calculated in the interval from t = 5 to 10 min after placing peptide solutions onto the rheometer.
To study the influence of divalent ions and different media on SAP hydrogel stiffness, gelation speed and gel breaking points (yield points), SAPs were prepared at a concentration of 15 mg ml^−1 in the different media, Tris–NaCl, Tris–MgSO4, DMEM or artificial saliva, according to table 1. All experiments were done at least in duplicate. Statistical evaluation was performed with GRAPHPAD PRISM version 6.0 based on a one-way ANOVA test followed by Tukey's multiple comparison test.

[3] = Fibre width of dried SAP hydrogels by scanning electron microscopy; format: physicochemical; settings: SEM of critical-point-dried hydrogel, 15 mg ml^-1 in Tris–NaCl, ionic strength 140 mM, pH 7.2–8.0, assembled overnight; 25 fibre widths per picture, ImageJ; mean ± SD
Protocol: Nanofibrillar structure of SAP hydrogels was formed for scanning electron microscopy (SEM) (Zeiss SUPRA® 40VP) at a concentration of 15 mg ml^−1 in Tris–NaCl buffer to a final ionic strength of 140 mM and a final pH of 7.2–8.0, as described in table 1. SAP hydrogels were assembled overnight. Self-assembly was apparent due to the gelation and β-sheet formation of the fibrillar structure as described by Aggeli et al. and Carrick et al. (by circular dichroism, Fourier transform infrared spectroscopy and transmission electron microscopy) and was further confirmed in the present study for P11-4 and P11-8 (see electronic supplementary material, figures S4, S6 and S7). SAP hydrogels were fixed with a glutaraldehyde solution (4% in borate buffer, using 0.1 ml per 0.1 ml peptide hydrogel) for 24 h. Gels were then dehydrated by increasing ethanol concentration in steps (25%, 50%, 60%, 70%, 80%, 90%, 100% ethanol) at 15 min intervals. The last step (100% ethanol) was repeated three times. Afterwards, critical point drying (Balzers Union, CPD020) was applied to stabilize the natural three-dimensional network structure. Finally, the network structures were glued on an SEM stub with carbon tape and sputter coated with 2.5 nm gold–palladium (Thermo VG Scientific, Polaron, SC7620). […] Fibre diameters were analysed with IMAGEJ software. Twenty-five fibre widths were measured for each picture.

[4] = 15 mg ml^-1, artificial saliva, n = 3
[5] = 15 mg ml^-1, serum-free DMEM, n = 3
[6] = artificial saliva versus DMEM, 15 mg ml^-1

Structure (SMILES): CC(=O)N[C@@H](CCC(N)=O)C(=O)N[C@@H](CCC(N)=O)C(=O)N[C@@H](CCCNC(=N)N)C(=O)N[C@@H](Cc1ccccc1)C(=O)N[C@@H](CCC(=O)O)C(=O)N[C@@H](Cc1c[nH]c2ccccc12)C(=O)N[C@@H](CCC(=O)O)C(=O)N[C@@H](Cc1ccccc1)C(=O)N[C@@H](CCC(=O)O)C(=O)N[C@@H](CCC(N)=O)C(=O)N[C@@H](CCC(N)=O)C(N)=O [P11-4, CH3CO-QQRFEWEFEQQ-NH2] (Ac-QQRFEWEFEQQ-NH2)
- relative peptide amount in supernatant (% of peptide starting concentration) ([1]; 1 d): 14.7± 2.8%
- relative peptide amount in supernatant (% of peptide starting concentration) ([1]; 7 d): 12.8± 5.8%
- Stiffness (storage modulus G′ at t = 100 min) ([2]; 15 mg ml^-1, Tris–MgSO4, 1 rad s^-1, 37°C, n = 3): 9.5±2.7 kPa
- Speed (gelation speed, dG′/dt 5–10 min) ([2]; 15 mg ml^-1, Tris–MgSO4): 0.8±0.1 G`/min
- Stiffness (storage modulus G′ at t = 100 min) ([2]; 15 mg ml^-1, Tris–NaCl, 1 rad s^-1, 37°C, n = 3): 5.0± 2.1 kPa
- Speed (gelation speed, dG′/dt 5–10 min) ([2]; 15 mg ml^-1, Tris–NaCl): 1.6± 0.6 G`/min
- Speed (gelation speed, dG′/dt 5–10 min) [2, 4]: 2.3 ± 0.9 G`/min
- Stiffness (storage modulus G′ at t = 100 min) [2, 4]: 4.9 ± 1.6 kPa
- Speed (gelation speed, dG′/dt 5–10 min) [2, 5]: 1.3 ± 0.4 G`/min
- Stiffness (storage modulus G′ at t = 100 min) [2, 5]: 0.4± 0.01 kPa
- factor of increase of gelation (speed) in artificial saliva [2, 6]: 1.8
- factor of increase of hydrogel stiffness if prepared with artificial saliva [2, 6]: 12
- mean fibre width [3]: 32 ± 6.6 nm
